We go through 27 compounds from patent US11419869B2, “Dosage forms and regimens for amino acid compounds” (Pliant Therapeutics, Inc., priority 2019, dated 2022).

In general, IC50 refers to the point on the concentration scale where inhibition reaches its midpoint.

Some results are limits rather than exact numbers.

Chain of recombinant human integrin αvβ6 (P06756 31-992): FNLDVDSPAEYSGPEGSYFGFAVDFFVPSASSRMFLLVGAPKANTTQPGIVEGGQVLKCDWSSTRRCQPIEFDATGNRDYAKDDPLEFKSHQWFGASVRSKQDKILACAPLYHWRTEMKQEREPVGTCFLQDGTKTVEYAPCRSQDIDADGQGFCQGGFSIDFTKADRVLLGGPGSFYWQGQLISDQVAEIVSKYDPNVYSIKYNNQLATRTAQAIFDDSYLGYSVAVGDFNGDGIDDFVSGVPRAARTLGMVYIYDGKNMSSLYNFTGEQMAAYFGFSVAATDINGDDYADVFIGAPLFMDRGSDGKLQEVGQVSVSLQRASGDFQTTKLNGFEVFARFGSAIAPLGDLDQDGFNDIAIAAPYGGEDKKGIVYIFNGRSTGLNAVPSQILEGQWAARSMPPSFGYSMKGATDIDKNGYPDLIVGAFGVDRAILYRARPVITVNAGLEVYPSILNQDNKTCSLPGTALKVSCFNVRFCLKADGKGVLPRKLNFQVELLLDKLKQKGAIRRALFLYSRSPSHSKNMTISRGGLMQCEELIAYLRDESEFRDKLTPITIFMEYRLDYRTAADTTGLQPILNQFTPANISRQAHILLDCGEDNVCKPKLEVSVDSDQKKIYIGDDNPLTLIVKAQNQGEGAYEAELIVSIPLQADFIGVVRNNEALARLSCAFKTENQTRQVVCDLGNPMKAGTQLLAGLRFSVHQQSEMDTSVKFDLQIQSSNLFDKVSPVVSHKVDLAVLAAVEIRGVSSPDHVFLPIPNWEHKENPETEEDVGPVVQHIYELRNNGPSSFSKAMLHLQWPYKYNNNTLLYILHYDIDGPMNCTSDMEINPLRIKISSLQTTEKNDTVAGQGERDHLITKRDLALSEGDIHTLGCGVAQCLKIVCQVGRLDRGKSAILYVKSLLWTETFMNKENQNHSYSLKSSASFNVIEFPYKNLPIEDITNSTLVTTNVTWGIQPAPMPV
Chain of recombinant human integrin αvβ6 (P18564 22-707): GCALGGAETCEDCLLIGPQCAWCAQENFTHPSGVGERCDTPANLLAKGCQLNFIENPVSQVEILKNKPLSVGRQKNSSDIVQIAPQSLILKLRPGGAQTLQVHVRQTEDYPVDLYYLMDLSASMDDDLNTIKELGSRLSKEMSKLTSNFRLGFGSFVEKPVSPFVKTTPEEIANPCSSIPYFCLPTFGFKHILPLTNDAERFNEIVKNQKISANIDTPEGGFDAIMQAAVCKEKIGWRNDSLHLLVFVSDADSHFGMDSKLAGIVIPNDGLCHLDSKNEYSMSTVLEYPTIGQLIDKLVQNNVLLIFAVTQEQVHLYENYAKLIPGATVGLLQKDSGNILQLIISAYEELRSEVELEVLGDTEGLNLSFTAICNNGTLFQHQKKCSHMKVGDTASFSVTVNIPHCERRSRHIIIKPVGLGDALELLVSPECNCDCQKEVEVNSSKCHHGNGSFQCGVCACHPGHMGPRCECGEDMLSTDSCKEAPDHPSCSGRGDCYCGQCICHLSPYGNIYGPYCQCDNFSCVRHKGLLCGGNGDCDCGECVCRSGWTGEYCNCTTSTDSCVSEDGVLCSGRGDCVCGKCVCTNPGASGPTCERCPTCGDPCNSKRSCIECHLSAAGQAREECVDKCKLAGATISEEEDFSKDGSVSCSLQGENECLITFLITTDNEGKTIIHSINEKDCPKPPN

The test concerns the target recombinant human integrin αvβ6 (Homo sapiens (Human), UniProt P06756+P18564). As to the kind of experiment: Solid Phase Integrin αvβ6 Binding Assay (Examples B1, B2). Particulars: TGFβ1 LAP ligand, values given in four ranges, read-out: αvβ6 Inhibition IC50 (nM)-range. Put shortly:
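Plates coated with recombinant human αvβ6 (2 μg/mL) compete compound against recombinant TGFβ1 LAP (0.67 μg/mL) in TBS binding buffer with 0.5 mM MnCl2, 2 h at 25 °C. Bound LAP detected with biotin-anti-hLAP and peroxidase-streptavidin; IC50 by four-parameter logistic regression.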
Regarding `N#Cc1cnc(N[C@@H](CCN(CCCCc2ccc3c(n2)NCCC3)CC(F)F)C(=O)O)nc1` [Compound 118, (S)-2-((5-cyanopyrimidin-2-yl)amino)-4-((2,2-difluoroethyl) (4-(5,6,7,8-tetrahydro-1,8-naphthyridin-2-yl)butyl)amino) butanoic acid], the IC50 was over 1000 nM. On to `CO[C@H](C)CN(CCCCc1ccc2c(n1)NCCC2)CC[C@H](Nc1ncc(C#N)cn1)C(=O)O` [Compound 68, (S)-2-((5-cyanopyrimidin-2-yl)amino)-4-(((R)-2-methoxypropyl) (4-(5,6,7,8-tetrahydro-1,8-naphthyridin-2-yl)butyl)amino) butanoic acid], for which the IC50 is under 50 nM. `CS(=O)(=O)CCN(CCCCc1ccc2c(n1)NCCC2)CC[C@H](Nc1ncc(C(F)(F)F)cn1)C(=O)O` [Compound 102, (S)-4-((2-(methylsulfonyl)ethyl) (4-(5,6,7,8-tetrahydro-1,8-naphthyridin-2-yl)butyl)amino)-2-((5-(trifluoromethyl)pyrimidin-2-yl)amino) butanoic acid]: the IC50 was over 1000 nM.

On to `O=C(O)[C@H](CCN(CCCCc1ccc2c(n1)NCCC2)C1CC1)Nc1ncc(C(F)(F)F)cn1` [Compound 114, (S)-4-(cyclopropyl(4-(5,6,7,8-tetrahydro-1,8-naphthyridin-2-yl)butyl)amino)-2-((5-(trifluoromethyl)pyrimidin-2-yl)amino) butanoic acid], for which the IC50 was under 50 nM. Consider `COC[C@@H](F)CN(CCCCc1ccc2c(n1)NCCC2)CC[C@H](Nc1ncnc2c1cnn2C)C(=O)O` [Compound 105, (S)-4-(((S)-2-fluoro-3-methoxypropyl) (4-(5,6,7,8-tetrahydro-1,8-naphthyridin-2-yl)butyl)amino)-2-((1-methyl-1H-pyrazolo[3,4-d]pyrimidin-4-yl)amino) butanoic acid], for which the IC50 is under 50 nM. With `CC(=O)NCCN(CCCCc1ccc2c(n1)NCCC2)CC[C@H](Nc1ncnc2ccccc12)C(=O)O` [Compound 63, (S)-4-((2-acetamidoethyl) (4-(5,6,7,8-tetrahydro-1,8-naphthyridin-2-yl)butyl)amino)-2-(quinazolin-4-ylamino) butanoic acid], the IC50 was under 50 nM.

For `COC[C@@H](F)CN(CCCCc1ccc2c(n1)NCCC2)CC[C@H](Nc1cc(-n2cccn2)ncn1)C(=O)O` [Compound 108, (S)-2-((6-(1H-pyrazol-1-yl)pyrimidin-4-yl)amino)-4-(((S)-2-fluoro-3-methoxypropyl) (4-(5,6,7,8-tetrahydro-1,8-naphthyridin-2-yl)butyl)amino) butanoic acid], the IC50 was over 1000 nM. Consider `COCCN(CCCCc1ccc2c(n1)NCCC2)CC[C@H](Nc1nccnc1C#N)C(=O)O` [Compound 67, (S)-2-((3-cyanopyrazin-2-yl)amino)-4-((2-methoxyethyl) (4-(5,6,7,8-tetrahydro-1,8-naphthyridin-2-yl)butyl)amino) butanoic acid], for which the IC50 is under 50 nM. `Cn1ncc2c(N[C@@H](CCN(CCCF)CCCCc3ccc4c(n3)NCCC4)C(=O)O)ncnc21` [Compound 136, (S)-4-((3-fluoropropyl) (4-(5,6,7,8-tetrahydro-1,8-naphthyridin-2-yl)butyl)amino)-2-((1-methyl-1H-pyrazolo[3,4-d]pyrimidin-4-yl)amino) butanoic acid]: the IC50 was under 50 nM. With `O=C(O)[C@H](CCN(CCCCc1ccc2c(n1)NCCC2)CC(F)F)Nc1ncc(Br)cn1` [Compound 96, (S)-2-((5-bromopyrimidin-2-yl)amino)-4-((2,2-difluoroethyl) (4-(5,6,7,8-tetrahydro-1,8-naphthyridin-2-yl)butyl)amino) butanoic acid], the IC50 was over 1000 nM. Turning to `O=C(O)[C@H](CCN(CCCCc1ccc2c(n1)NCCC2)CCOc1ccccc1)Nc1cc(-c2ccccc2)ncn1` [Compound 93, (S)-4-((2-phenoxyethyl) (4-(5,6,7,8-tetrahydro-1,8-naphthyridin-2-yl)butyl)amino)-2-((6-phenylpyrimidin-4-yl)amino) butanoic acid], the IC50 is under 50 nM.

As to `COC[C@@H](F)CN(CCCCc1ccc2c(n1)NCCC2)CC[C@H](Nc1nc(-c2cccnc2)nc2ccccc12)C(=O)O` [Compound 109, (S)-4-(((S)-2-fluoro-3-methoxypropyl) (4-(5,6,7,8-tetrahydro-1,8-naphthyridin-2-yl)butyl)amino)-2-((2-(pyridin-3-yl)quinazolin-4-yl)amino) butanoic acid], the IC50 was under 50 nM.

As to `O=C(O)[C@H](CCN(CCCCc1ccc2c(n1)NCCC2)CCOc1ccccc1)Nc1ncnc2ccccc12` [Compound 28, (S)-4-((2-phenoxyethyl) (4-(5,6,7,8-tetrahydro-1,8-naphthyridin-2-yl)butyl)amino)-2-(quinazolin-4-ylamino) butanoic acid], the IC50 is under 50 nM. As to `O=C(O)[C@H](CCN(CCCF)CCCCc1ccc2c(n1)NCCC2)Nc1ncnc2ccccc12` [Compound 30, (S)-4-((3-fluoropropyl) (4-(5,6,7,8-tetrahydro-1,8-naphthyridin-2-yl)butyl)amino)-2-(quinazolin-4-ylamino) butanoic acid], the IC50 was under 50 nM. As for `COCCN(CCCCc1ccc2c(n1)NCCC2)CC[C@H](Nc1ncnc2ccc(F)cc12)C(=O)O` [Compound 19, (S)-2-((6-fluoroquinazolin-4-yl)amino)-4-((2-methoxyethyl) (4-(5,6,7,8-tetrahydro-1,8-naphthyridin-2-yl)butyl)amino) butanoic acid], the IC50 is under 50 nM.

`Cc1ncccc1OCCN(CCCCc1ccc2c(n1)NCCC2)CC[C@H](Nc1ncnc2cccnc12)C(=O)O` [Compound 54, (S)-4-((2-((2-methylpyridin-3-yl)oxy)ethyl) (4-(5,6,7,8-tetrahydro-1,8-naphthyridin-2-yl)butyl)amino)-2-(pyrido[3,2-d]pyrimidin-4-ylamino) butanoic acid]: the IC50 is under 50 nM. For the compound `COC[C@@H](F)CN(CCCCc1ccc2c(n1)NCCC2)CC[C@H](Nc1nc(C)nc2cc(F)ccc12)C(=O)O` [Compound 32, (S)-2-((7-fluoro-2-methylquinazolin-4-yl)amino)-4-(((S)-2-fluoro-3-methoxypropyl) (4-(5,6,7,8-tetrahydro-1,8-naphthyridin-2-yl)butyl)amino) butanoic acid], the IC50 is under 50 nM.

Regarding `CS(=O)(=O)CCN(CCCCc1ccc2c(n1)NCCC2)CC[C@H](Nc1ncc(Br)cn1)C(=O)O` [Compound 103, (S)-2-((5-bromopyrimidin-2-yl)amino)-4-((2-(methylsulfonyl)ethyl) (4-(5,6,7,8-tetrahydro-1,8-naphthyridin-2-yl)butyl)amino) butanoic acid], the concentration for half-maximal inhibition (IC50) was over 1000 nM. Consider `Cc1nc(N[C@@H](CCN(CCCCc2ccc3c(n2)NCCC3)CCOc2cncc(F)c2)C(=O)O)c2ccc(F)cc2n1` [Compound 61, (S)-2-((7-fluoro-2-methylquinazolin-4-yl)amino)-4-((2-((5-fluoropyridin-3-yl)oxy)ethyl) (4-(5,6,7,8-tetrahydro-1,8-naphthyridin-2-yl)butyl)amino) butanoic acid], for which the IC50 was under 50 nM. On to `CO[C@H](C)CN(CCCCc1ccc2c(n1)NCCC2)CC[C@H](Nc1ncnc2ccccc12)C(=O)O` [Compound 62, (S)-4-(((R)-2-methoxypropyl) (4-(5,6,7,8-tetrahydro-1,8-naphthyridin-2-yl)butyl)amino)-2-(quinazolin-4-ylamino) butanoic acid], for which the IC50 was under 50 nM. As to `O=C(O)[C@H](CCN(CCCCc1ccc2c(n1)NCCC2)CC(F)F)Nc1cc(-c2ccccc2)ncn1` [Compound 142, (S)-4-((2,2-difluoroethyl) (4-(5,6,7,8-tetrahydro-1,8-naphthyridin-2-yl)butyl)amino)-2-((6-phenylpyrimidin-4-yl)amino) butanoic acid], the IC50 was over 1000 nM.

As to `O=C(O)[C@H](CCN(CCCCc1ccc2c(n1)NCCC2)CC(F)F)Nc1cc(-n2cccn2)ncn1` [Compound 98, (S)-2-((6-(1H-pyrazol-1-yl)pyrimidin-4-yl)amino)-4-((2,2-difluoroethyl) (4-(5,6,7,8-tetrahydro-1,8-naphthyridin-2-yl)butyl)amino) butanoic acid], the IC50 is over 1000 nM. Take `N#Cc1cnc(N[C@@H](CCN(CCCCc2ccc3c(n2)NCCC3)CCOc2ccc(F)cc2)C(=O)O)nc1` [Compound 138, (S)-2-((5-cyanopyrimidin-2-yl)amino)-4-((2-(4-fluorophenoxy)ethyl) (4-(5,6,7,8-tetrahydro-1,8-naphthyridin-2-yl)butyl)amino) butanoic acid]: the IC50 is under 50 nM. `CO[C@@H](C)CN(CCCCc1ccc2c(n1)NCCC2)CC[C@H](Nc1ncnc2ccccc12)C(=O)O` [Compound 25, (S)-4-(((S)-2-methoxypropyl) (4-(5,6,7,8-tetrahydro-1,8-naphthyridin-2-yl)butyl)amino)-2-(quinazolin-4-ylamino) butanoic acid]: the IC50 was under 50 nM. Turning to `CO[C@H](C)CN(CCCCc1ccc2c(n1)NCCC2)CC[C@H](Nc1nccnc1C#N)C(=O)O` [Compound 76, (S)-2-((3-cyanopyrazin-2-yl)amino)-4-(((R)-2-methoxypropyl) (4-(5,6,7,8-tetrahydro-1,8-naphthyridin-2-yl)butyl)amino) butanoic acid], the IC50 was under 50 nM.

`CO[C@H](C)CN(CCCCc1ccc2c(n1)NCCC2)CC[C@H](Nc1ncc(Br)cn1)C(=O)O` [Compound 70, (S)-2-((5-bromopyrimidin-2-yl)amino)-4-(((R)-2-methoxypropyl) (4-(5,6,7,8-tetrahydro-1,8-naphthyridin-2-yl)butyl)amino) butanoic acid]: the IC50 was under 50 nM.

As for `CO[C@H](C)CN(CCCCc1ccc2c(n1)NCCC2)CC[C@H](Nc1ccnc(-c2ccccc2)n1)C(=O)O` [Compound 73, (S)-4-(((R)-2-methoxypropyl) (4-(5,6,7,8-tetrahydro-1,8-naphthyridin-2-yl)butyl)amino)-2-((2-phenylpyrimidin-4-yl)amino) butanoic acid], the IC50 is under 50 nM.
